Measured values: patent publication US9340590B2 (priority 2011, dated 2016)
Where two headings read alike, the source gives them in different places. Positions of bridges follow the written chain, without caps; N, C: chain ends. Residues, ends and D or L forms follow the SMILES beside them.

Assays:
hNav1.7 [1] = molecular target: T1, hNav1.7 (Homo sapiens, UniProt Q15858); assay: cell-based; type: cell-based; conditions: IonWorks Quattro; clamped to −110 mV, depolarized to −10 mV, 5 min after compound; n=2; read-out: IWQ Use Nav1.7
hNav1.3 [2] = molecular target: T2, hNav1.3 (Homo sapiens, UniProt Q9NY46); assay: cell-based; type: cell-based; conditions: Nav1.3 Use IC50
hNav1.5 [3] = molecular target: T3, hNav1.5 (Homo sapiens, UniProt Q14524); assay: cell-based; conditions: IonWorks Quattro; clamped to −110 mV, depolarized to −10 mV, 5 min after compound; n=2; read-out: IWQ Use Nav1.5
hNav1.3 [4] = molecular target: T2, hNav1.3; assay: cell-based
hNav1.7 [5] = molecular target: T1, hNav1.7; assay: cell-based; conditions: Nav1.7 Use IC50
hNav1.5 [6] = molecular target: T3, hNav1.5; assay: cell-based
[7] = system: locomotor activity in male CD-1 mice; conditions: 5 mg/kg s.c.; for total basic movement / total fine movement / total rearing / total time rearing: later studies (FIGS. 99-110), 1-hour pre-treatment

T2 sequence (Q9NY46 whole entry, looked up): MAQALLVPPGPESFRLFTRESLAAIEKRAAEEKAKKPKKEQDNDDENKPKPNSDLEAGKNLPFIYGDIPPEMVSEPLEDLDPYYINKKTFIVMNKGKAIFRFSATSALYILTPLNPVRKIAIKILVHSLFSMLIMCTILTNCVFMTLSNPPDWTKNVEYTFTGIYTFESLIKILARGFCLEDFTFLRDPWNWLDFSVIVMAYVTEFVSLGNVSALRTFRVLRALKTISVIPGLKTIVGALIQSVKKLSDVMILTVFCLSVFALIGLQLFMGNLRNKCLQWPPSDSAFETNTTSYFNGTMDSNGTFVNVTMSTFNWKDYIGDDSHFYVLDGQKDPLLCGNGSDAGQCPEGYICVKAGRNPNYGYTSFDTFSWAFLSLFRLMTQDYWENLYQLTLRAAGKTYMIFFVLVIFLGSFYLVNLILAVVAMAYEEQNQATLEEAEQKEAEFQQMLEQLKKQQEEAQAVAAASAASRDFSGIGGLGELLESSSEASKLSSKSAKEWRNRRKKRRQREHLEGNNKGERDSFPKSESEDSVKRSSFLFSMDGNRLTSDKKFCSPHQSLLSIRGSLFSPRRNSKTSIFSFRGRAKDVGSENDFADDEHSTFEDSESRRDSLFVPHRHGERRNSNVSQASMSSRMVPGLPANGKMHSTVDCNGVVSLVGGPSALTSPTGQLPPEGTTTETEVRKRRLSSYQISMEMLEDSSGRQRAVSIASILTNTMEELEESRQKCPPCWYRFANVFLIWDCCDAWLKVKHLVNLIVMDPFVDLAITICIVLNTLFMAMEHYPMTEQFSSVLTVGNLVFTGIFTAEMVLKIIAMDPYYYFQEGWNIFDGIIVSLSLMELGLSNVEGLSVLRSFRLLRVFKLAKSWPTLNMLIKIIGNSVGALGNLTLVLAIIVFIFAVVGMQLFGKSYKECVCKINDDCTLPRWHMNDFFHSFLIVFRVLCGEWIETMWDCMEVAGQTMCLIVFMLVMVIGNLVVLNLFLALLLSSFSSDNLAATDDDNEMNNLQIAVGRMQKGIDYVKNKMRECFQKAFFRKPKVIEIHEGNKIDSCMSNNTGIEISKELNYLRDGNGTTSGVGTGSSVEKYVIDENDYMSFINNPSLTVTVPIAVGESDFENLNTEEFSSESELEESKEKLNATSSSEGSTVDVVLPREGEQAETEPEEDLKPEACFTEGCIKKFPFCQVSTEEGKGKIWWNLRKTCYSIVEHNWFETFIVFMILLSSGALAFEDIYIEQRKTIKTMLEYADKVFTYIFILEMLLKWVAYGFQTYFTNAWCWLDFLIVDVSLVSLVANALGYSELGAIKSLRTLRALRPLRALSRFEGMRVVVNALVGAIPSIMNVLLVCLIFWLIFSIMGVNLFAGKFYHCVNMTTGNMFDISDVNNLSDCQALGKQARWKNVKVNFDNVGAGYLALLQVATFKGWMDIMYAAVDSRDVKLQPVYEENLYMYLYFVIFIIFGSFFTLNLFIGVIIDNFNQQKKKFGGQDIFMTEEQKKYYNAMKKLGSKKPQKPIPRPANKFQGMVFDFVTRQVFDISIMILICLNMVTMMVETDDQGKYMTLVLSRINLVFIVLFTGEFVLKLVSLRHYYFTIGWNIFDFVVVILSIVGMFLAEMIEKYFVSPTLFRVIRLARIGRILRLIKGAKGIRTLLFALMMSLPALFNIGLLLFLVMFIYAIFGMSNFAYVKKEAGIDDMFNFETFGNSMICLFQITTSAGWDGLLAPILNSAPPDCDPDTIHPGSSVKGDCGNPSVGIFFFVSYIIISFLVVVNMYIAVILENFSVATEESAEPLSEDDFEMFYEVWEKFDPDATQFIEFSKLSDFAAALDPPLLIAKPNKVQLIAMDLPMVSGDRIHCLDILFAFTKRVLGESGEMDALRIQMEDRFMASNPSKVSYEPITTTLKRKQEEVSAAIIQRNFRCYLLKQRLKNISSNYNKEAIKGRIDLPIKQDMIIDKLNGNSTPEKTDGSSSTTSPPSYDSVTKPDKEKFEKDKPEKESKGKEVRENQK
T1 sequence (Q15858 whole entry, looked up): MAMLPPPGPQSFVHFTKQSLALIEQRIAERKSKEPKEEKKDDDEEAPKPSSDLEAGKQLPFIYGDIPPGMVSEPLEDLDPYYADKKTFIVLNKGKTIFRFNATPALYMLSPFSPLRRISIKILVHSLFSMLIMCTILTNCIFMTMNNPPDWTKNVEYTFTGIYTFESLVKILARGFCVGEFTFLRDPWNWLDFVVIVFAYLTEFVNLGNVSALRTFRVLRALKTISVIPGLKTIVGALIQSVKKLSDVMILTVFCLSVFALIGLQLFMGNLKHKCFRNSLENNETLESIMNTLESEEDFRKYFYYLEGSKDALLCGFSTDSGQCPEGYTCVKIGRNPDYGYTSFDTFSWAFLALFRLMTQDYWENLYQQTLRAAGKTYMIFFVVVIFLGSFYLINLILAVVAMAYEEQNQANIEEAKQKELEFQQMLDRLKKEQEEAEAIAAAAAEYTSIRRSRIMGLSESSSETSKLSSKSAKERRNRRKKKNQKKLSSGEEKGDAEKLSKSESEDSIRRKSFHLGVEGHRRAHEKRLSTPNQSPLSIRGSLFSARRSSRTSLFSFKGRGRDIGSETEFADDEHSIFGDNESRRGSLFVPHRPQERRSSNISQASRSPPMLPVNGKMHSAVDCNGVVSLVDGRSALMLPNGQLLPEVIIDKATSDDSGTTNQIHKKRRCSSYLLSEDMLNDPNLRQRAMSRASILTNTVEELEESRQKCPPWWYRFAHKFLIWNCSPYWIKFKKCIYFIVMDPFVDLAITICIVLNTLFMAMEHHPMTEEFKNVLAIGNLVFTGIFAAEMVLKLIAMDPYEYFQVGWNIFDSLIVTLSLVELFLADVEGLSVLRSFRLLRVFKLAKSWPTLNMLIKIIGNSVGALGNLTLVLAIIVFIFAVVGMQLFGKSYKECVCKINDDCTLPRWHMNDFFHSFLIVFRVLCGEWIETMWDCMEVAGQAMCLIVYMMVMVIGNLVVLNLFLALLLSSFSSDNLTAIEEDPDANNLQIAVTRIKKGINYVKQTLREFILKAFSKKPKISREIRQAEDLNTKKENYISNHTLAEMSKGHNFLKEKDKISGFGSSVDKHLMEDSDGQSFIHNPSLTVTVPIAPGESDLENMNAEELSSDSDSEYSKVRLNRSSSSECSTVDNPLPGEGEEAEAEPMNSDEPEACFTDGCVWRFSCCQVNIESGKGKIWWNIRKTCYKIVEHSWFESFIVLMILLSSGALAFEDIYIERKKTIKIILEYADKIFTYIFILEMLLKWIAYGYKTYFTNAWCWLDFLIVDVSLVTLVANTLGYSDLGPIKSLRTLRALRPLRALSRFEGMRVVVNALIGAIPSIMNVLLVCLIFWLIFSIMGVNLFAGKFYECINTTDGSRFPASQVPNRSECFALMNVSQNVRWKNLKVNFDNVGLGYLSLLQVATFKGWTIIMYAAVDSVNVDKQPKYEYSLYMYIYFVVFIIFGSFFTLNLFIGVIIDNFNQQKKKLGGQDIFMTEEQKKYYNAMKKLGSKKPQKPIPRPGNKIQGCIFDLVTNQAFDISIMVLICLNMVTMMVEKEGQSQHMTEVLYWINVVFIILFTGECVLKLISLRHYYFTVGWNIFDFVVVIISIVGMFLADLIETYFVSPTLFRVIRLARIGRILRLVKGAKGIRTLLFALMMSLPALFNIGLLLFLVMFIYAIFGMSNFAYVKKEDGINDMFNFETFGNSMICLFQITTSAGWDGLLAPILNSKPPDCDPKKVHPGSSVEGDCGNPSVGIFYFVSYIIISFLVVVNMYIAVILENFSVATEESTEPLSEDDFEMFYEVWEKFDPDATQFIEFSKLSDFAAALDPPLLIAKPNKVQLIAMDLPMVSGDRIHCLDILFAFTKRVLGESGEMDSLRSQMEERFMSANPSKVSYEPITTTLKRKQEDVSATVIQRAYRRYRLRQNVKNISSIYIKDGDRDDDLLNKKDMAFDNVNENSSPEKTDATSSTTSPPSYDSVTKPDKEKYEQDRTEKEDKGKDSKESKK

Compound	IC50 (hNav1.7 [1]) [µM]	IC50 (hNav1.3 [2]) [µM]	IC50 (hNav1.5 [3]) [µM]	IC50 (hNav1.3 [4]) [µM]	IC50 (hNav1.7 [5]) [µM]	IC50 (hNav1.5 [6]) [µM]	locomotor activity in the open field analysis [7]	total basic movement [7]	total fine movement [7]	total rearing [7]	total time rearing [7]
CC[C@H](C)[C@@H]1NC(=O)[C@@H]2CSSC[C@@H]3NC(=O)[C@H](C(C)C)NC(=O)[C@H](CC(C)C)NC(=O)[C@H](CC(N)=O)NC(=O)[C@@H]4CCCN4C(=O)[C@H](CCCNC(=N)N)NC(=O)[C@H](CSSC[C@H](NC(=O)[C@@H](N)CC(=O)O)C(=O)N[C@@H](CC(C)C)C(=O)NCC(=O)N[C@@H](CC4CCCCC4)C(=O)N[C@@H](CCSC)C(=O)N[C@@H](CCCNC(=N)N)C(=O)N[C@@H](CCCCN)C(=O)N2)NC(=O)[C@H](CSSC[C@@H](C(=O)N[C@@H](CCCCN)C(=O)N[C@@H](Cc2ccc(O)cc2)C(=O)N[C@H](C(=O)N[C@@H](Cc2ccccc2)C(N)=O)C(C)C)NC(=O)[C@H](Cc2c[nH]c4ccccc24)NC(=O)[C@H](CCCCN)NC(=O)[C@H](Cc2cnc[nH]2)NC(=O)[C@H]([C@@H](C)O)NC(=O)[C@H](CCCNC(=N)N)NC(=O)[C@H](CO)NC3=O)NC(=O)[C@H](CCCCN)NC(=O)[C@H](CC(=O)O)NC(=O)[C@H](CC(N)=O)NC(=O)[C@H](CC(=O)O)NC(=O)[C@@H]2CCCN2C1=O [SEQ ID NO: 243]	0.01	0.007	6.99	0.02	0.003	3.39					
CC[C@H](C)[C@@H]1NC(=O)[C@@H]2CSSC[C@@H]3NC(=O)[C@H](C(C)C)NC(=O)[C@H](CC(C)C)NC(=O)[C@H](CC(N)=O)NC(=O)[C@@H]4CCCN4C(=O)[C@H](CCCNC(=N)N)NC(=O)[C@H](CSSC[C@H](NC(=O)[C@@H](N)CC(=O)O)C(=O)N[C@@H](CC(C)C)C(=O)NCC(=O)N[C@@H](Cc4ccccc4)C(=O)N[C@@H](CCSC)C(=O)N[C@@H](CCCNC(=N)N)C(=O)N[C@@H](CCCCN)C(=O)N2)NC(=O)[C@H](CSSC[C@@H](C(=O)N[C@@H](CCCCN)C(=O)N[C@@H](Cc2ccc(O)cc2)C(=O)N[C@H](C(=O)N[C@@H](Cc2ccccc2)C(N)=O)C(C)C)NC(=O)[C@H](Cc2c[nH]c4ccccc24)NC(=O)[C@H](CCC(=O)O)NC(=O)[C@H](Cc2cnc[nH]2)NC(=O)[C@H]([C@@H](C)O)NC(=O)[C@H](CCCNC(=N)N)NC(=O)[C@H](CO)NC3=O)NC(=O)[C@H](CCCCN)NC(=O)[C@H](CC(=O)O)NC(=O)[C@H](CC(N)=O)NC(=O)[C@H](CC(=O)O)NC(=O)[C@@H]2CCCN2C1=O [[Glu28]GpTx-1(1-34)] (H-DCLGFMRKCIPDNDKCCRPNLVCSRTHEWCKYVF-NH2; disulfide 2-17, 9-23, 16-30)							significantly reduced locomotor activity	significantly reduced	significantly reduced	significantly reduced	significantly reduced
CC[C@H](C)[C@@H]1NC(=O)[C@@H]2CSSC[C@@H]3NC(=O)[C@H](C(C)C)NC(=O)[C@H](CC(C)C)NC(=O)[C@H](CC(N)=O)NC(=O)[C@@H]4CCCN4C(=O)[C@H](CCCNC(=N)N)NC(=O)[C@H](CSSC[C@H](NC(=O)[C@@H](N)CC(=O)O)C(=O)N[C@@H](CC(C)C)C(=O)NCC(=O)N[C@@H](Cc4ccccc4)C(=O)N[C@@H](CCSC)C(=O)N[C@@H](CCCNC(=N)N)C(=O)N[C@@H](CCCCN)C(=O)N2)NC(=O)[C@H](CSSC[C@@H](C(=O)N[C@@H](CCCCN)C(=O)N[C@@H](Cc2ccc(O)cc2)C(=O)N[C@H](C(=O)N[C@@H](Cc2ccccc2)C(N)=O)C(C)C)NC(=O)[C@H](CCC(=O)O)NC(=O)[C@H](CCCCN)NC(=O)[C@H](Cc2cnc[nH]2)NC(=O)[C@H]([C@@H](C)O)NC(=O)[C@H](CCCNC(=N)N)NC(=O)[C@H](CO)NC3=O)NC(=O)[C@H](CCCCN)NC(=O)[C@H](CC(=O)O)NC(=O)[C@H](CC(N)=O)NC(=O)[C@H](CC(=O)O)NC(=O)[C@@H]2CCCN2C1=O [[Glu29]GpTx-1(1-34)] (H-DCLGFMRKCIPDNDKCCRPNLVCSRTHKECKYVF-NH2; disulfide 2-17, 9-23, 16-30)								did not significantly decrease	not significantly affected	did not significantly decrease	not significantly affected
